Values joined by “and” are separate entries in the source; they are usually repeats but may differ in a detail not shown here. Equal values may be shown once. Where a name gives a salt, the structure may show the parent alone. Read-outs that look alike come from different tables or passages of the source.
Key:
[1] = Plasma pharmacokinetics of a CTN HCl formulation, 164.4 mg dose (Table 11); format: in vivo, human; conditions: for Tmax: median
Protocol: The plasma pharmacokinetics from a CTN HCl formulation having a dose of 164.4 mg can be as in Table 11.

[2] = Plasma pharmacokinetics of CTN HCl formulation, 164.4 mg or 328.8 mg, First Day and Fifth Day (Table 12); format: in vivo, human; conditions: for AUC ratio / Cmax ratio: Fifth Day/First Day; for Tmax: n = 8, median; for Cmax / AUC(0-t) / concentration at 1 h / concentration at 12 h / concentration at 16 h / AUC(0-inf): n = 8, mean; for AUC(0-t): read-out: AUC0-24 h; for concentration at 1 h: read-out: C1 hr; for concentration at 12 h: read-out: C12 hr; for concentration at 16 h: read-out: C16 hr
Protocol: The plasma pharmacokinetics from a CTN HCl formulation having a dose of 164.4 mg or 328.8 mg can be as in Table 12.

[3] = Biopharmaceutics classification (solubility, permeability); format: physicochemical
Description: Described herein are methods of using centanafadine (CTN) or a pharmaceutically acceptable salt thereof for the treatment of central nervous system disorders. […] As used herein, CTN should be understood to refer to centanafadine, while pharmaceutically acceptable salts thereof are also considered in addition to or as one or more alternatives to CTN in every method, use, and formulation described herein, unless explicitly stated otherwise. Centanafadine [CAS 924012-43-1], also known chemically as (1R,5S)-1-(naphthalen-2-yl)-3-azabicyclo[3.1.0]hexane or (+)-1-(naphthalen-2-yl)-3-azabicyclo[3.1.0]hexane, has the following structure: […]

[4] = molecular target: norepinephrine reuptake transporter (NET) (Homo sapiens, UniProt P23975); test: Reuptake transporter inhibition, NET; format: biochemical; conditions: relative among NET, DAT, SERT
Chain of norepinephrine reuptake transporter (NET) (P23975 whole entry): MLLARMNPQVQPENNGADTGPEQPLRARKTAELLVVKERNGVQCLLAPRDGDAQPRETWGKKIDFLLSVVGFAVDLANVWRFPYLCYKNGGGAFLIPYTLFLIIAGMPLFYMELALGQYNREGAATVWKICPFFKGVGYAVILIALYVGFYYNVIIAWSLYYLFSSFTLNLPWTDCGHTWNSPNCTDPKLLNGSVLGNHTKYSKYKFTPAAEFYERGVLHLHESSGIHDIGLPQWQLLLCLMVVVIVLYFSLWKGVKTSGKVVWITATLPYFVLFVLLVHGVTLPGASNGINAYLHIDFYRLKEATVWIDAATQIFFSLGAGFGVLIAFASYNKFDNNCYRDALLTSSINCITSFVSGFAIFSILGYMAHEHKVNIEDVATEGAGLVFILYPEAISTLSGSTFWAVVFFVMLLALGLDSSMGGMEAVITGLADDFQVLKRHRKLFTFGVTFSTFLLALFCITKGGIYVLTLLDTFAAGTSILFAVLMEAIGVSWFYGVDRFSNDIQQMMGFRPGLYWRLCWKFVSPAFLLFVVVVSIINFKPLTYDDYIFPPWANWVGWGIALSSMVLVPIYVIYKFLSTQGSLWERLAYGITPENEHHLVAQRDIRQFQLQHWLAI
Description: (§1) and is an unbalanced triple reuptake inhibitor with the most potency towards the norepinephrine reuptake transporter (NET), one-sixth as much towards the dopamine reuptake transporter (DAT), and one-fourteenth as much towards the serotonin reuptake transporter (SERT).

[5] = molecular target: dopamine reuptake transporter (DAT) (Homo sapiens, UniProt Q01959); test: Reuptake transporter inhibition, DAT; format: biochemical
Chain of dopamine reuptake transporter (DAT) (Q01959 whole entry, species assumed): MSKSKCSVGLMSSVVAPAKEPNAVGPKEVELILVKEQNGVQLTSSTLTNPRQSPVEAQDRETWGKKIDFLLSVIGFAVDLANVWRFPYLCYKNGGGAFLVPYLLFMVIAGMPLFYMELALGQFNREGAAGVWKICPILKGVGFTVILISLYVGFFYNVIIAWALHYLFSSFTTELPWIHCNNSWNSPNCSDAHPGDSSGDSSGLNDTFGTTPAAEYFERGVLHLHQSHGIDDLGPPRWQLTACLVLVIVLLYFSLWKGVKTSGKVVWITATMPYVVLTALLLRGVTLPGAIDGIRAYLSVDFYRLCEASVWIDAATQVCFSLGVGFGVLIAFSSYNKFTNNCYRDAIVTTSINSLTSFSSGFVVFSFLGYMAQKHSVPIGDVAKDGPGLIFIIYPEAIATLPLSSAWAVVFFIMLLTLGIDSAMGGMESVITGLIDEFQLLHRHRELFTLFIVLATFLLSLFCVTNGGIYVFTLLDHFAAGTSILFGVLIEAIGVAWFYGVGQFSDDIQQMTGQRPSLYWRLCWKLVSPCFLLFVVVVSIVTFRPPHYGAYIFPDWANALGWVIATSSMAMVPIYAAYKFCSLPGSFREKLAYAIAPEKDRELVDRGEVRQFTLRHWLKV
Description: as §1

[6] = molecular target: serotonin reuptake transporter (SERT) (Homo sapiens, UniProt P31645); test: Reuptake transporter inhibition, SERT; format: biochemical
Chain of serotonin reuptake transporter (SERT) (P31645 whole entry, species assumed): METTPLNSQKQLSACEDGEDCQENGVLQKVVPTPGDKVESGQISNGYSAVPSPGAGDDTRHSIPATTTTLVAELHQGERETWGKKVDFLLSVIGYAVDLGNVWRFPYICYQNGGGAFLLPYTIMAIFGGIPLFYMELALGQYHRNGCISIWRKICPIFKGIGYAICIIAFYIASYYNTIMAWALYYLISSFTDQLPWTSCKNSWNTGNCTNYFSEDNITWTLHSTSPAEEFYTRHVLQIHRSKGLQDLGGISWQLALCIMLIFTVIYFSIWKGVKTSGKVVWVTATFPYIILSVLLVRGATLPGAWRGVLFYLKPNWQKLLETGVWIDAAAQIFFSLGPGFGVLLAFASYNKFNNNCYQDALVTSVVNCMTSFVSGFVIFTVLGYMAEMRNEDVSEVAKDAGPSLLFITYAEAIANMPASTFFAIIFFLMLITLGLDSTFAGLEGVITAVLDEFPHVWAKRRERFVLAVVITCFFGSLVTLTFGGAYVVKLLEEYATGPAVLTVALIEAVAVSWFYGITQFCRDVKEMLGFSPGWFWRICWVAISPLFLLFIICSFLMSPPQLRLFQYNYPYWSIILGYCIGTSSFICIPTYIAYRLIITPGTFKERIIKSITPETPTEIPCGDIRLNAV
Description: as §1

[7] = Safety and tolerability (adverse events); conditions: in vivo
[8] = tested on: adult subjects with MDD; test: Phase 2 trial, centanafadine XR as adjunct to escitalopram in MDD (Example 2); format: in vivo, human
Description: Inclusion and Exclusion criteria are the same as Example 1. In addition, subjects who are taking escitalopram or citalopram at the time of screening, have been exposed to escitalopram or citalopram in their current MDE, or have reported an inadequate response to an adequate dose/duration of escitalopram or citalopram in the past, are also excluded.
All subjects receive either escitalopram monotherapy, centanafadine QD XR capsules+escitalopram (combination therapy), or matching placebo, for 6 weeks.
For day 1, the escitalopram tablet is a 10 mg QD dose. At Week 1, dosing increases to 20 mg QD for the remainder of subject participation in the trial.
Subjects assigned to receive escitalopram monotherapy receive a 10 mg QD dose at Day 1. At Week 1, dosing increases to 20 mg QD for the remainder of subject participation in the trial. Dose reductions are not permitted.

[9] = tested on: adult subjects with MDD; test: Phase 2 trial, centanafadine XR monotherapy in MDD (Example 1); conditions: 328.8 mg once daily XR
[10] = human, plasma, 164.4 mg, Fifth Day
[11] = human, plasma, 164.4 mg, First Day
[12] = human, plasma, 328.8 mg, First Day
[13] = human, plasma, oral, 164.4 mg, Fifth Day
[14] = human, plasma, oral, 164.4 mg, First Day
[15] = human, plasma, oral, 328.8 mg, Fifth Day
[16] = human, plasma, oral, 328.8 mg, First Day

## c1ccc2cc([C@]34CNC[C@H]3C4)ccc2c1 [Centanafadine HCl]
[1]
  AUC0-24 h: 5290 ng·h/mL
  C1 hr: 302 ng/mL and 321 ng/mL and 358 ng/mL
  C12 hr: 186 ng/mL and 220 ng/mL and 289 ng/mL
  Cmax: 618 ng/mL and 629 ng/mL
  Tmax: 4.5 h and 5 h
[1]; human, oral, read-out: tmax
  Tmax: 4 to 7.5 h
[1]; human, oral, n = 11, read-out: AUC0-inf
  AUC(0-inf): 5000 to 8000 ng·h/mL
[1]; human, oral, read-out: AUC0-1 h
  AUC(0-t): 150 to 500 ng·h/mL
[1]; human, oral, read-out: AUC0-24 h
  AUC(0-t): 4500 to 7500 ng·h/mL
[1]; human, oral, read-out: Cmax
  Cmax: 500 to 700 ng/mL
[1]; n = 11
  AUC(0-inf): 6240 ng·h/mL and 7110 ng·h/mL
[2]; 164.4 mg
  AUC ratio: 0.98
  Cmax ratio: 1.13
[2]; 328.8 mg, Fifth Day
  Tmax: 5.00 h
[2]; 328.8 mg
  AUC ratio: 1.16
  Cmax ratio: 1.31
[2]; [10]
  Cmax: 709 ng/mL
  AUC(0-t): 6650 ng·h/mL
[2]; [11]
  Cmax: 651 ng/mL
  AUC(0-t): 6570 ng·h/mL
  AUC(0-inf): 7110 ng·h/mL
[2]; human, plasma, 328.8 mg, Fifth Day
  AUC(0-t): 18400 ng·h/mL
[2]; [12]
  AUC(0-t): 16000 ng·h/mL
  AUC(0-inf): 16700 ng·h/mL
[2]; [13]
  concentration at 1 h: 427 ng/mL
  concentration at 12 h: 276 ng/mL
  concentration at 16 h: 103 ng/mL
[2]; human, plasma, oral, 164.4 mg, Fifth Day, read-out: tmax
  Tmax: 5.5 h
[2]; [14]
  concentration at 1 h: 358 ng/mL
  concentration at 12 h: 289 ng/mL
  concentration at 16 h: 133 ng/mL
[2]; human, plasma, oral, 164.4 mg, First Day, read-out: tmax
  Tmax: 7 h
[2]; [15]
  Cmax: 2230 ng/mL
  concentration at 1 h: 718 ng/mL
  concentration at 12 h: 646 ng/mL
  concentration at 16 h: 211 ng/mL
[2]; [16]
  Cmax: 1940 ng/mL
  concentration at 1 h: 640 ng/mL
  concentration at 12 h: 750 ng/mL
  concentration at 16 h: 306 ng/mL
[2]; human, plasma, oral, 328.8 mg, First Day, read-out: tmax
  Tmax: 4 h

## c1ccc2cc([C@]34CNC[C@H]3C4)ccc2c1 [Centanafadine, (1R,5S)-1-(naphthalen-2-yl)-3-azabicyclo[3.1.0]hexane]
[3]
  BSC classification: Class I
  solubility: highly soluble
[3]; not told
  permeability: highly permeable
[4]
  potency towards NET: most potency
[5]
  potency towards DAT relative to NET: one-sixth
[6]
  potency towards SERT relative to NET: one-fourteenth
[7]
  safety and tolerability, rate of adverse events (AEs): generally safe and well tolerated
[8]; 6 weeks combination therapy (centanafadine XR 328.8 mg + escitalopram 10-20 mg QD) vs escitalopram monotherapy
  mean decrease of primary efficacy measures (MADRS Total score): greater
[8]; centanafadine XR 328.8 mg + escitalopram, 6 weeks
  efficacy as adjunct therapy to SSRI (escitalopram) in patients with MDD: effective as an adjunct therapy
[9]; 6 weeks
  SF-36v2 general scores from baseline: Increased
  efficacy as monotherapy in patients with MDD: effective as monotherapy
  risk for depression (SF-36v2): reduced
[9]; 6 weeks, vs placebo
  CGI-C scores: significant reductions
  CGI-S scores from baseline: significant reductions
  PGI-C scores: significant reductions
  PGI-S scores from baseline: significant reductions
[9]; after 6-week double-blind treatment, vs placebo
  primary efficacy measures (MADRS Total score): significantly reduces
